{"source": "patent US20100120775A1", "about": "“Farnesoid X Receptor Agonists” (SMITHKLINE BEECHAM CORPORATION, priority 2006, published 2010)", "origin": "cited, not measured here", "key": {"bile duct-ligated mouse": {"system": "bile duct-ligated mouse", "details": "bile duct-ligated mouse model; cited from earlier work"}, "ob/ob mice": {"system": "ob/ob mice", "details": "male ob/ob mice; 30 mg/kg intraperitoneally; cited from earlier work"}, "[1]": {"system": "mice on a lithogenic diet", "details": "cited from earlier work"}, "db/db mice": {"system": "db/db mice", "details": "cited from earlier work"}, "mice on high-fat diet": {"system": "mice on high-fat diet", "details": "cited from earlier work"}, "[2]": {"system": "rodent models of hepatic fibrosis", "details": "multiple rodent models; cited from earlier work"}, "[3]": {"system": "hepatic stellate cells (HSC)", "details": "cultured HSCs; cited from earlier work"}, "[4]": {"details": "db/db mice, oral 30 mg/kg, bid, serum"}, "[5]": {"details": "100 mg/kg twice a day orally, 100 mg/kg"}}, "note": "Entries after “also recorded” stand apart in the source; their conditions may differ."}
{"smiles": "CC(C)c1onc(-c2c(Cl)cccc2Cl)c1COc1ccc(/C=C/c2cccc(C(=O)O)c2)c(Cl)c1", "note": "[GW4064]", "values": [{"measurement": "bacterial overgrowth", "setting": "bile duct-ligated mouse", "result": "decreased"}, {"measurement": "mucosal barrier", "setting": "bile duct-ligated mouse", "result": "improved"}, {"measurement": "translocation of bacteria to mesenteric lymph nodes", "setting": "bile duct-ligated mouse", "result": "decreased"}, {"measurement": "body weight", "setting": "ob/ob mice", "result": "did not alter"}, {"measurement": "fasting blood glucose", "setting": "ob/ob mice", "result": "no effect"}, {"measurement": "food intake", "setting": "ob/ob mice", "result": "did not alter"}, {"measurement": "glucose tolerance", "setting": "ob/ob mice", "result": "improved"}, {"measurement": "insulin concentration", "setting": "ob/ob mice", "result": "decreased"}, {"measurement": "insulin sensitivity", "setting": "ob/ob mice", "result": "enhanced"}, {"measurement": "formation of cholesterol crystals in the bile", "setting": "[1]", "result": "prevented"}, {"measurement": "glycogen storage in the liver", "setting": "db/db mice; db/db mice", "result": "enhanced"}, {"measurement": "insulin signalling in the liver", "setting": "db/db mice; db/db mice", "result": "enhanced"}, {"measurement": "blood glucose", "setting": "db/db mice; db/db mice, oral 30 mg/kg, bid", "result": "decreased"}, {"measurement": "serum β-hydroxybutyrate", "setting": "db/db mice; db/db mice, oral 30 mg/kg, bid", "result": "decreased"}, {"measurement": "NEFA", "setting": "db/db mice; [4]", "result": "decreased"}, {"measurement": "total cholesterol", "setting": "db/db mice; [4]", "result": "decreased"}, {"measurement": "triglyceride", "setting": "db/db mice; [4]", "result": "decreased"}, {"measurement": "hyperglycemia", "setting": "db/db mice; diabetic db/db mice", "result": "significantly improved"}, {"measurement": "hyperlipidemia", "setting": "db/db mice; diabetic db/db mice", "result": "significantly improved"}, {"measurement": "body weight / high-fat diet induced body weight gain", "setting": "mice on high-fat diet; [5]", "result": "decrease; also recorded: reduced"}, {"measurement": "serum glucose", "setting": "mice on high-fat diet; [5]", "result": "decreased"}, {"measurement": "serum insulin", "setting": "mice on high-fat diet; [5]", "result": "decreased"}, {"measurement": "serum triglyceride", "setting": "mice on high-fat diet; [5]", "result": "decreased"}, {"measurement": "glucose tolerance", "setting": "mice on high-fat diet; 100 mg/kg twice a day orally, GTT, 100 mg/kg", "result": "corrected; also recorded: improve"}, {"measurement": "liver triglyceride content", "setting": "mice on high-fat diet; 100 mg/kg twice a day orally", "result": "reduced"}, {"measurement": "body fat mass", "setting": "mice on high-fat diet", "result": "decrease"}, {"measurement": "total cholesterol", "setting": "mice on high-fat diet; serum", "result": "decrease"}]}
{"smiles": "CC[C@H]1[C@@H](O)[C@@H]2[C@H](CC[C@]3(C)[C@@H]([C@H](C)CCC(=O)O)CC[C@@H]23)[C@@]2(C)CC[C@@H](O)C[C@@H]12", "note": "[Example 6EtCDCA, 6-ethyl-chenodeoxycholic acid]", "values": [{"measurement": "hepatic fibrosis", "setting": "[2]", "result": "prevent development and promote resolution"}, {"measurement": "expression of α1(I)collagen", "setting": "[3]", "result": "decreased"}, {"measurement": "expression of α-smooth muscle actin", "setting": "[3]", "result": "decreased"}]}
